Measured values published in publication PMC9026008 (ACS Omega, 2022).

T1: CGI-58 (Homo sapiens, UniProt Q8WTS1, S237E/W19A/W23A/W27A)
T1 sequence (Q8WTS1 1-349 W19A/W23A/W27A/S237E): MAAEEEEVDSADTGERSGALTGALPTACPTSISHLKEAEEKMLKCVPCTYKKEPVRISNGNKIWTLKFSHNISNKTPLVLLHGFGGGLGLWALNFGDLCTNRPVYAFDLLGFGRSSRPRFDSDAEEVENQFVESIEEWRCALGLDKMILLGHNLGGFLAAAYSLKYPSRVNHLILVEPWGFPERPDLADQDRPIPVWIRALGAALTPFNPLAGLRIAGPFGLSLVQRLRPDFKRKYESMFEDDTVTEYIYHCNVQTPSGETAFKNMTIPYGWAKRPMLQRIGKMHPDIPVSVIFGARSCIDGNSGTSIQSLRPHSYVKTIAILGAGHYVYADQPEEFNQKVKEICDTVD


What was measured:
[1] = biological target: T1, CGI-58; assay: intrinsic tryptophan fluorescence quenching, […] protein, […] °C; assay type: binding
[2] = biological target: the molecule itself; assay: SEC

Row | Molecule | Kd [1] [nM] | binding result [2]
1 | CCCCCCCC/C=C\CCCCCCCC(=O)SCCNC(=O)CCNC(=O)[C@H](O)C(C)(C)COP(=O)(O)OP(=O)(O)OC[C@H]1O[C@@H](n2cnc3c(N)ncnc32)[C@H](O)[C@@H]1OP(=O)(O)O [oleoyl-CoA] | 2300 ± 300 | 
2 | human CGI-58 (Comparative Gene Identification-58) wild-type protein (natural protein, UniProt Q8WTS1 1-349, looked up) MAAEEEEVDSADTGERSGWLTGWLPTWCPTSISHLKEAEEKMLKCVPCTYKKEPVRISNGNKIWTLKFSHNISNKTPLVLLHGFGGGLGLWALNFGDLCTNRPVYAFDLLGFGRSSRPRFDSDAEEVENQFVESIEEWRCALGLDKMILLGHNLGGFLAAAYSLKYPSRVNHLILVEPWGFPERPDLADQDRPIPVWIRALGAALTPFNPLAGLRIAGPFGLSLVQRLRPDFKRKYSSMFEDDTVTEYIYHCNVQTPSGETAFKNMTIPYGWAKRPMLQRIGKMHPDIPVSVIFGARSCIDGNSGTSIQSLRPHSYVKTIAILGAGHYVYADQPEEFNQKVKEICDTVD |  | binds
